Measured values published in patent US11173207B2 (priority 2016, dated 2021).

Test system: Splenocytes
Design: species or system CD-1 mice
Conditions: mouse, in vivo

QS21
cytokine profile: strong and balanced Th1 plus Th2 cytokine profile
